The mass density is the mass of a sample divided by its volume.

The conditions of this series: 293.15 K; 101.33 kPa; Liquid; Vibrating tube method.

Numbers after ± are expanded uncertainties.

As to `CCCCCCCC[n+]1ccn(C)c1.F[P-](F)(F)(F)(F)F` [1-octyl-3-methylimidazolium hexafluorophosphate], the mass density turned out to be 1234.55 ± 8.3 kg/m3.
